The text below walks through data of patent US9884818B2, “Sulphamoylpyrrolamide derivatives and the use thereof as medicaments for the treatment of hepatitis B” (Janssen Sciences Ireland UC, priority 2013, dated 2018).

For data set [1], the system named is HBV. The experiment in a line: Anti-HBV activity, HepG2.117 inducibly HBV producing cell line (Tet-off), intracellular HBV DNA by realtime PCR. The following applies: Hepatitis B virus, HepG2.117, 72 h, HepG2.117 cells, 3 days of treatment, intracellular HBV DNA; read-out: HepG2 117 EC50. It is filed as cell-based.
Data set [2] can be described thus: Cytotoxicity in HepG2 cells, Resazurin viability assay. The following applies: human, HepG2 cells, HepG2 4 days CC50 (μM), incubated for 4 days, Resazurin assay.
For data set [3], the system named is HBV. Put plainly: Anti-HBV activity, HepG2.2.15 stable transfected cell line, HBV DNA from secreted virions by realtime PCR. It is filed as cell-based. The following applies: Hepatitis B virus, HepG2.2.15, 144 h, HepG2.2.15 cells, 6 days of treatment, HBV DNA from secreted virions; read-out: HepG2 2.15 EC50.

In general, EC50 refers to the midpoint of the concentration-response curve. As a reminder, the CC50 is the concentration at which the toxic effect on the cells reaches its halfway point. Higher therefore signals lower toxicity to the cells.

For `Cn1cc(S(=O)(=O)NCC(F)F)cc1C(=O)Nc1ccc(F)c(Br)c1` [Compound 127, N-(3-Bromo-4-fluorophenyl)-4-[(2,2-difluoroethyl)sulfamoyl]-1-methyl-1H-pyrrole-2-carboxamide], the concentration for a half-maximal effect (EC50) in the data set with HBV [1] is 0.19 µM; in the data set on HBV [3], 0.05 µM. The compound also gave a CC50 at 4 days in data set [2] of over 25 µM.

With `Cn1cc(S(=O)(=O)NCC(F)F)cc1C(=O)Nc1ccc(F)c(Cl)c1` [Compound 128, N-(3-Chloro-4-fluorophenyl)-4-[(2,2-difluoroethyl)sulfamoyl]-1-meth-1H-pyrrole-2-carboxamide], the values for the EC50 in the data set with HBV [1] and in the data set on HBV [3] were 0.09 µM and 0.15 µM, respectively. This compound registered a CC50 at 4 days in data set [2] of over 25 µM.

`Cn1cc(S(=O)(=O)NCC(F)F)cc1C(=O)Nc1ccc(F)c(F)c1` [Compound 129, 4-[(2,2-Difluoroethyl)sulfamoyl]-N-(3,4-difluorophenyl)-1-methyl-1H-pyrrole-2-carboxamide]: the values for the half-maximal effective concentration (EC50) in the data set on HBV [1] and in the data set on HBV [3] were 0.08 µM and 0.17 µM, respectively. In addition, the CC50 at 4 days in data set [2] is over 25 µM.

Take `Cn1cc(S(=O)(=O)NCC(F)F)cc1C(=O)Nc1cc(F)c(F)c(Cl)c1` [Compound 130, N-(3-Chloro-4,5-difluorophenyl)-4-[(2,2-difluoroethyl)sulfamoyl]-1-methyl-1H-pyrrole-2-carboxamide]: the figures for the concentration giving a half-maximal response (EC50) in the data set on HBV [1] and in the data set on HBV [3] were 0.15 µM and 0.09 µM, respectively. The compound also came in with a half-maximal cytotoxic concentration (CC50) at 4 days in data set [2] of over 25 µM.

For the compound `Cn1cc(S(=O)(=O)NCC(F)(F)F)cc1C(=O)Nc1ccc(F)c(Cl)c1` [Compound 131, N-(3-Chloro-4-fluorophenyl)-1-methyl-4-[(2,2,2-trifluoroethyl)sulfamoyl]-1H-pyrrole-2-carboxamide], the 50% effective concentration (EC50) with HBV [1] and in the data set with HBV [3] was 0.01 µM in each case. Further, the CC50 at 4 days in data set [2] was over 25 µM.

Consider `Cn1cc(S(=O)(=O)NCC(F)(F)F)cc1C(=O)Nc1ccc(F)c(F)c1` [Compound 132, N-(3,4-Difluorophenyl)-1-methyl-4-[(2,2,2-trifluoroethyl)sulfamoyl]-1H-pyrrole-2-carboxamide], for which the EC50 is 0.07 µM in the data set with HBV [1] and 0.08 µM in the data set on HBV [3]. The compound further showed a half-maximal cytotoxic concentration (CC50) at 4 days in data set [2] of over 25 µM.

As to `Cn1cc(S(=O)(=O)NCC(F)(F)F)cc1C(=O)Nc1cc(F)c(F)c(Cl)c1` [Compound 133, N-(3-Chloro-4,5-difluorophenyl)-1-methyl-4-[(2,2,2-trifluoroethyl)sulfamoyl]-1H-pyrrole-2-carboxamide], the values for the 50% effective concentration (EC50) with HBV [1] and in the data set with HBV [3] were 0.08 µM and 0.04 µM, respectively. The same compound gave a half-maximal cytotoxic concentration (CC50) at 4 days in data set [2] of over 25 µM.

With `Cn1cc(S(=O)(=O)NCC(F)(F)F)cc1C(=O)Nc1ccc(F)c(C#N)c1` [Compound 134, N-(3-Cyano-4-fluorophenyl)-1-methyl-4-[(2,2,2-trifluoroethyl)sulfamoyl]-1H-pyrrole-2-carboxamide], the values for the concentration for a half-maximal effect (EC50) with HBV [1] and in the data set on HBV [3] were 0.13 µM and 0.18 µM, respectively. In data set [2], this compound came in with a CC50 at 4 days of over 25 µM.

For the compound `Cn1cc(S(=O)(=O)NCC(F)(F)F)cc1C(=O)Nc1ccc(F)c(Br)c1` [Compound 135, N-(3-Bromo-4-fluorophenyl)-1-methyl-4-[(2,2,2-trifluoroethyl)sulfamoyl]-1H-pyrrole-2-carboxamide], the concentration giving a half-maximal response (EC50) stood at 0.26 µM with HBV [1] and 0.02 µM with HBV [3]. The compound also registered a CC50 at 4 days in data set [2] of over 25 µM.

Regarding `Cc1c(S(=O)(=O)NC2(C)COC2)cc(C(=O)Nc2cc(F)c(F)c(Cl)c2)n1C` [Compound 136, N-(3-Chloro-4,5-difluorophenyl)-1,5-dimethyl-4-[(3-methyloxetan-3-yl)sulfamoyl]-1H-pyrrole-2-carboxamide], the EC50 in the data set on HBV [1] and with HBV [3] was 0.06 µM in each case. Moreover, the CC50 at 4 days in data set [2] was over 25 µM.

On to `Cc1c(S(=O)(=O)N[C@H](C)C(F)(F)F)cc(C(=O)Nc2cc(F)c(F)c(Cl)c2)n1C` [Compound 137, N-(3-Chloro-4,5-difluorophenyl)-1,5-dimethyl-4-{[(1R)-2,2,2-trifluoro-1-methylethyl]sulfamoyl}-1H-pyrrole-2-carboxamide], for which the concentration giving a half-maximal response (EC50) in the data set with HBV [1] came out at 0.04 µM; in the data set on HBV [3], 0.03 µM. Besides, the 50% cytotoxic concentration (CC50) at 4 days in data set [2] came out at 16.5 µM.

`Cc1c(S(=O)(=O)N[C@H](C)C(F)(F)F)cc(C(=O)Nc2ccc(F)c(Cl)c2)n1C` [Compound 138, N-(3-Chloro-4-fluorophenyl)-1,5-dimethyl-4-{[(1R)-2,2,2-trifluoro-1-methylethyl]sulfamoyl}-1H-pyrrole-2-carboxamide]: the concentration giving a half-maximal response (EC50) in the data set on HBV [1] is 0.03 µM; with HBV [3], 0.1 µM. The compound also displayed a CC50 at 4 days in data set [2] of over 25 µM.

For `Cc1c(S(=O)(=O)N[C@H](C)C(F)(F)F)cc(C(=O)Nc2ccc(F)c(F)c2)n1C` [Compound 139, N-(3,4-Difluorophenyl)-1,5-dimethyl-4-{[(1R)-2,2,2-trifluoro-1-methylethyl]sulfamoyl}-1H-pyrrole-2-carboxamide], the EC50 in the data set on HBV [1] worked out at 0.03 µM; in the data set with HBV [3] it was 0.05 µM. Also, the CC50 at 4 days in data set [2] is over 25 µM.

For `Cc1c(S(=O)(=O)N[C@H](C)C(F)(F)F)cc(C(=O)Nc2ccc(F)c(C#N)c2)n1C` [Compound 140, N-(3-Cyano-4-fluorophenyl)-1,5-dimethyl-4-{[(1R)-2,2,2-trifluoro-1-methylethyl]sulfamoyl}-1H-pyrrole-2-carboxamide], the EC50 in the data set on HBV [1] amounted to 0.06 µM; with HBV [3], 0.1 µM. In data set [2], this compound showed a 50% cytotoxic concentration (CC50) at 4 days of over 25 µM.

Regarding `Cc1c(S(=O)(=O)N[C@H](C)C(F)(F)F)cc(C(=O)Nc2ccc(F)c(Br)c2)n1C` [Compound 141, N-(3-Bromo-4-fluorophenyl)-1,5-dimethyl-4-{[(1R)-2,2,2-trifluoro-1-methylethyl]sulfamoyl}-1H-pyrrole-2-carboxamide], the values for the concentration giving a half-maximal response (EC50) in the data set on HBV [1] and in the data set with HBV [3] were 0.15 µM and 0.04 µM, respectively. In data set [2], this compound registered a CC50 at 4 days of over 25 µM.

Turning to `Cc1c(S(=O)(=O)N[C@H](C)C(F)(F)F)cc(C(=O)Nc2ccc(F)c(C(F)(F)F)c2)n1C` [Compound 142, N-[4-Fluoro-3-(trifluoromethyl)phenyl]-1,5-dimethyl-4-{[(1R)-2,2,2-trifluoro-1-methylethyl]sulfamoyl}-1H-pyrrole-2-carboxamide], the results for the EC50 with HBV [1] and with HBV [3] were 0.42 µM and 0.15 µM, respectively. This compound also yielded a CC50 at 4 days in data set [2] of over 25 µM.

For the compound `Cc1c(S(=O)(=O)N[C@H](C)C(F)(F)F)cc(C(=O)Nc2ccc(F)c(Cl)c2F)n1C` [Compound 143, N-(3-Chloro-2,4-difluorophenyl)-1,5-dimethyl-4-{[(1R)-2,2,2-trifluoro-1-methylethyl]sulfamoyl}-1H-pyrrole-2-carboxamide], the results for the EC50 with HBV [1] and in the data set on HBV [3] were 0.15 µM and 0.05 µM, respectively. For the same compound, the cytotoxic concentration (CC50) at 4 days in data set [2] is over 25 µM.

`Cc1c(S(=O)(=O)N[C@H](C)C(F)(F)F)cn(C)c1C(=O)Nc1ccc(F)c(F)c1` [Compound 144, N-(3,4-Difluorophenyl)-1,3-dimethyl-4-{[(1R)-2,2,2-trifluoro-1-methylethyl]sulfamoyl}-1H-pyrrole-2-carboxamide]: the 50% effective concentration (EC50) in the data set on HBV [1] turned out to be 0.07 µM; with HBV [3] it was 0.05 µM. The compound also had a CC50 at 4 days in data set [2] of over 25 µM.

For the compound `Cc1c(S(=O)(=O)N[C@H](C)C(F)(F)F)cn(C)c1C(=O)Nc1ccc(F)c(Cl)c1` [Compound 145, N-(3-Chloro-4-fluorophenyl)-1,3-dimethyl-4-{[(1R)-2,2,2-trifluoro-1-methylethyl]sulfamoyl}-1H-pyrrole-2-carboxamide], the EC50 is 0.03 µM with HBV [1] and 0.04 µM with HBV [3]. This compound also yielded a CC50 at 4 days in data set [2] of over 25 µM.

With `Cc1c(S(=O)(=O)N[C@@H](C)C(F)(F)F)cn(C)c1C(=O)Nc1ccc(F)c(F)c1` [Compound 146, N-(3,4-Difluorophenyl)-1,3-dimethyl-4-{[(1S)-2,2,2-trifluoro-1-methylethyl]sulfamoyl}-1H-pyrrole-2-carboxamide], the figures for the EC50 in the data set with HBV [1] and in the data set on HBV [3] were 0.04 µM and 0.07 µM, respectively. In data set [2], this compound displayed a half-maximal cytotoxic concentration (CC50) at 4 days of over 25 µM.

As to `Cc1c(S(=O)(=O)N[C@@H](C)C(F)(F)F)cn(C)c1C(=O)Nc1ccc(F)c(Cl)c1` [Compound 147, N-(3-Chloro-4-fluorophenyl)-1,3-dimethyl-4-{[(1S)-2,2,2-trifluoro-1-methylethyl]sulfamoyl}-1H-pyrrole-2-carboxamide], the EC50 amounted to 0.04 µM in the data set with HBV [1] and 0.08 µM in the data set with HBV [3]. Also, in data set [2], the CC50 at 4 days was over 25 µM.

With `Cc1c(S(=O)(=O)NC2(C)COC2)cn(C)c1C(=O)Nc1ccc(F)c(F)c1` [Compound 148, N-(3,4-Difluorophenyl)-1,3-dimethyl-4-[(3-methyloxetan-3-yl)sulfamoyl]-1H-pyrrole-2-carboxamide], the EC50 with HBV [1] was determined as 0.07 µM; with HBV [3], 0.11 µM. Besides, in data set [2], the 50% cytotoxic concentration (CC50) at 4 days is over 25 µM.

Take `Cc1c(S(=O)(=O)NC2(C)COC2)cn(C)c1C(=O)Nc1ccc(F)c(Cl)c1` [Compound 149, N-(3-Chloro-4-fluorophenyl)-1,3-dimethyl-4-[(3-methyloxetan-3-yl)sulfamoyl]-1H-pyrrole-2-carboxamide]: the 50% effective concentration (EC50) with HBV [1] is 0.03 µM; with HBV [3] it was 0.04 µM. In addition, in data set [2], the CC50 at 4 days was over 25 µM.

Regarding `Cc1c(S(=O)(=O)N[C@H](C)C(F)(F)F)cn(C)c1C(=O)Nc1ccc(F)c(C#N)c1` [Compound 150, N-(3-Cyano-4-fluorophenyl)-1,3-dimethyl-4-{[(1R)-2,2,2-trifluoro-1-methylethyl]sulfamoyl}-1H-pyrrole-2-carboxamide], the half-maximal effective concentration (EC50) with HBV [1] came to 0.06 µM; in the data set with HBV [3] it was 0.09 µM. The CC50 at 4 days in data set [2] is over 25 µM.

Regarding `Cc1c(S(=O)(=O)N[C@@H](C)C(F)(F)F)cn(C)c1C(=O)Nc1ccc(F)c(C#N)c1` [Compound 151, N-(3-Cyano-4-fluorophenyl)-1,3-dimethyl-4-{[(1S)-2,2,2-trifluoro-1-methylethyl]sulfamoyl}-1H-pyrrole-2-carboxamide], the half-maximal effective concentration (EC50) in the data set with HBV [1] was 0.07 µM; in the data set with HBV [3], 0.08 µM. The CC50 at 4 days in data set [2] was over 25 µM.
